Measurements from patent publication US20250275995A1, “NICOTINAMIDE RIBOSIDE DOSAGE REGIMEN FOR TREATING PARKINSON'S DISEASE” (VESTLANDETS INNOVASJONSSELSKAP AS (VIS), priority 2022, published 2025).
“And” between values parts separate entries of the source, which are not always exact repeats. Equal entries are not always repeated.

Experiments:
[1] = test system: individuals with newly diagnosed, drug-naïve PD; test: NADPARK phase I trial: tolerability of NR therapy (1000 mg per day, 30 days) in PD; assay type: in vivo, human
Method: The present inventors completed a phase I randomized, double blinded trial, aiming to assess the tolerability, cerebral bioavailability and molecular effects of NR therapy in PD. A total of 30 individuals with newly diagnosed, drug-naïve PD were randomized to NR 500 mg×2/day or placebo for 30 days (Cell Metab. 2022 Mar. 1; 34(3):396-407.e6).
NR is well-tolerated. […] NR achieves brain penetration. […] While a significant NR-induced increase in cerebral NAD levels was detected at the group level, this effect was not uniform at the individual level.

[2] = test system: cerebral metabolic activity; test: NADPARK: FDG-PET, NR-related metabolic pattern (NRRP); assay type: in vivo, human
From the text: This novel NR-related metabolic pattern (NRRP) was characterized by multiple regional metabolic changes, including bilateral metabolic reductions in the caudate and putamen, extending into the adjacent globus pallidus, and in the thalamus (FIG. 1D-E). […] The NRRP expression can be derived from the FDG-PET data, as previously described (Cell Metab. 2022 Mar. 1; 34(3):396-407.e6). For example, a NR-related metabolic pattern (NRRP) can be identified by using ordinal trends/canonical variates analysis (OrT/CVA), a supervised form of principal component analysis (PCA) (Habeck et al., (2005), Neural Computation 17, 1602-1645). […] Likewise, the reliability of the voxel loadings (i.e., region weights) on the resulting network topography can be assessed using bootstrap resampling procedures (Habeck and Stern (2010), Cell Biochemistry and Biophysics 58, 53-67; Mure et al. (2011), Neuroimage 54, 1244-1253). The analysis can be restricted to the top PC patterns, accounting for greater than 75% of the subject×voxel variance in the longitudinal data. Expression values for these PCs can then be entered singly and in all possible linear combinations to identify significant monotonic trends in the individual subject data, i.e., consistent increases (or decreases) in pattern expression across the subjects with few if any violations (p<0.05; permutation test, 1000 iterations). The resulting coefficients are applied to the corresponding PC patterns to construct the NR-related topography. […] The analysis can be performed within a population or the individual subject's gray matter brain mask defined by the FDG-PET scans, e.g., as outlined in Table 1.

individuals with PD = test: NR-SAFE: vital signs, body metrics, ECG; assay type: in vivo, human
Method: (§1) At screening for trial entry, candidates underwent physical and neurological examination. Enrolled participants were assessed by physical visits by a movement disorder specialist at baseline (visit 1, V1), day 7 (V4), day 14 (V5), day 21 (V6) and day 28 (V7). At baseline and day 28 participants underwent additional assessment with the Movement Disorder Society Unified Parkinson's disease Rating Scale section I-IV (MDS-UPDRS). At all physical visits an electrocardiogram (ECG), vital parameters (blood pressure, pulse, weight, height) and blood samples were obtained. Additional blood samples were taken on day 3 (V2) and day 5 (V3) to assess safety. The participants were interviewed by telephone consultation by a study nurse on day 3 and day 35 to screen for additional adverse events. Participants were instructed to take their anti-Parkinson drugs as they normally would and no changes were made to anti-Parkinson drug treatment during the trial. Adverse events (AEs) were recorded by the investigating physician. These were then classified by severity according to the Common Terminology Criteria for Adverse Events v5.0 (CTCAE)^13 as either mild (1), moderate (2), severe (3), life-threatening (4) or death (5). The AE relation to the study drug was scored as unrelated (1), unlikely (2), possible (3), probable (4) or definitely (5). 13 Freites-Martinez, A., Santana, N., Arias-Santiago, S. & Viera, A. Using the Common Terminology Criteria for Adverse Events (CTCAE—Version 5.0) to Evaluate the Severity of Adverse Events of Anticancer Therapies. Actas Dermosifiliogr (Engl Ed) 112, 90-92 (2021).

Parkinson's Disease (PD) = test: NR-SAFE: MDS-UPDRS and Hoehn and Yahr scores; assay type: in vivo, human
Method: as §1

[3] = NR-SAFE: clinical laboratory values from blood samples (serum); assay type: in vivo, human
Method: Analysis of clinical laboratory values from blood samples was performed by the Department of Medical Biochemistry and Pharmacology (MBF) at Haukeland University Hospital, Bergen, Norway.

adult humans = conditions: cited from earlier work
[4] = NR group, 3000 mg daily, 4 weeks
[5] = V1 (baseline), NR 3000 mg daily group, ±sd
[6] = V7 (day 28), NR 3000 mg daily, ±sd

With NC(=O)c1ccc[n+]([C@@H]2O[C@H](CO)[C@@H](O)[C@H]2O)c1 [NR, nicotinamide riboside] the serum homocysteine levels ([1]; NR 1000 mg daily, Phase I study) was “no change in serum homocysteine levels”, the “compliance, tolerability, toxicity” value ([1]; NR 1000 mg per day, 30 days, PD) was “excellent compliance, tolerability and no signs of toxicity or adverse side effects” and the “effect size (ES) of NRRP expression increase vs placebo” value ([2]; 1000 mg NR) was 0.883. The “increase in NRRP expression (mean±SD)” value ([2]; 1000 mg NR, NR treatment group) was 0.68±0.86, the “effect of NRRP expression change on PD cerebral metabolic pattern” value ([2]; NR group, 1000 mg daily, FDG-PET) was “partial normalization of the striatal and thalamic hypermetabolism” and the “Electrocardiography (ECG)” value (individuals with PD; NR 3000 mg daily, 4 weeks) was “no changes of clinical significance”. The “changes in systolic or diastolic blood pressure, pulse or weight between visit 1 and visit 7” value (individuals with PD; NR 3000 mg daily, 4 weeks) was “No significant changes in systolic or diastolic blood pressure, pulse or weight”, the “patients who developed asymptomatic bradycardia” value (individuals with PD; [4]) was “Two” and the “heart rate of patients with asymptomatic bradycardia” value (individuals with PD; NR group, 3000 mg daily, individual patients) was 58 beats/min and 46 beats/min. The Diastolic blood pressure (individuals with PD; [5]) was 74.7 ± 8.49 mmHg, the Pulse (individuals with PD; [5]) was 64.2 ± 14.67 min⁻¹ and the Systolic blood pressure (individuals with PD; [5]) was 122.1 ± 12.53 mmHg. For the same compound, the Weight (individuals with PD; [5]) was 79.38 ± 11.92 kg, the Diastolic blood pressure (individuals with PD; [6]) was 76.2 ± 6.81 mmHg and the Pulse (individuals with PD; [6]) was 61.1 ± 12.95 min⁻¹. The Systolic blood pressure (individuals with PD; [6]) was 122.2 ± 7.49 mmHg, the Weight (individuals with PD; [6]) was 79.38 ± 11.79 kg and the “Diastolic blood pressure, Δ” value (individuals with PD; Δ=V7−V1, NR 3000 mg daily, ±sd) was 1.5 ± 8.31 mmHg. The “Pulse, Δ” value (individuals with PD; Δ=V7−V1, NR 3000 mg daily, ±sd) was -3.1 ± 9.48 min⁻¹, the “Systolic blood pressure, Δ” value (individuals with PD; Δ=V7−V1, NR 3000 mg daily, ±sd) was 0.1 ± 8.29 mmHg and the “Weight, Δ” value (individuals with PD; Δ=V7−V1, NR 3000 mg daily, ±sd) was 0 ± 0.58 kg. For the same compound, the “clinical symptoms of PD, measured by MDS-UPDRS” value (Parkinson's Disease (PD); NR 3000 mg daily, 4 weeks) was “significantly improved clinical symptoms of PD”, the “Hoehn & Yahr score” value (Parkinson's Disease (PD); [5]) was 2 ± 0.66 and the “MDS-UPDRS Part I” value (Parkinson's Disease (PD); [5]) was 7.8 ± 5.37. For the same compound, the “MDS-UPDRS Part II” value (Parkinson's Disease (PD); [5]) was 9.4 ± 6.25, the “MDS-UPDRS Part III” value (Parkinson's Disease (PD); [5]) was 29.7±12.85 and the “MDS-UPDRS Part IV” value (Parkinson's Disease (PD); [5]) was 4.1 ± 4.88. For the same compound, the “Total MDS-UPDRS” value (Parkinson's Disease (PD); [5]) was 51±21.28, the “total MDS-UPDRS, subgroup” value (Parkinson's Disease (PD); V1, subgroup of 8 participants with similar intervals since last levodopa dose, NR 3000 mg daily) was 46.62±17.76 and the “Hoehn & Yahr score” value (Parkinson's Disease (PD); [6]) was 2.1 ± 0.31. For the same compound, the “MDS-UPDRS Part I” value (Parkinson's Disease (PD); [6]) was 5.6 ± 5.01, the “MDS-UPDRS Part II” value (Parkinson's Disease (PD); [6]) was 8.8 ± 7.58 and the “MDS-UPDRS Part III” value (Parkinson's Disease (PD); [6]) was 22.7±7.55. For the same compound, the “MDS-UPDRS Part IV” value (Parkinson's Disease (PD); [6]) was 3.2 ± 3.15, the “Total MDS-UPDRS” value (Parkinson's Disease (PD); [6]) was 40.3±17.1 and the “total MDS-UPDRS, subgroup” value (Parkinson's Disease (PD); V7, subgroup of 8 participants with similar intervals since last levodopa dose, NR 3000 mg daily) was 35.75±11.74. The “total MDS-UPDRS mean change, subgroup” value (Parkinson's Disease (PD); V7−V1, subgroup of 8 participants with similar intervals since last levodopa dose, NR 3000 mg daily) was −10.87±11.15, the “Hoehn & Yahr score, Δ” value (Parkinson's Disease (PD); Δ=V7−V1, NR 3000 mg daily, ±sd) was 0.1 ± 0.56 and the “MDS-UPDRS Part I, Δ” value (Parkinson's Disease (PD); Δ=V7−V1, NR 3000 mg daily, ±sd) was −2.2 ± 3.52. For the same compound, the “MDS-UPDRS Part II, Δ” value (Parkinson's Disease (PD); Δ=V7−V1, NR 3000 mg daily, ±sd) was −0.6 ± 2.36, the “MDS-UPDRS Part III, Δ” value (Parkinson's Disease (PD); Δ=V7−V1, NR 3000 mg daily, ±sd) was −7 ± 7.98 and the “MDS-UPDRS Part IV, Δ” value (Parkinson's Disease (PD); Δ=V7−V1, NR 3000 mg daily, ±sd) was −0.9 ± 2.60. The “Total MDS-UPDRS, Δ (mean change)” value (Parkinson's Disease (PD); Δ=V7−V1, NR 3000 mg daily, ±sd) was −10.7±9.94, the “clinical symptoms related to the observed HCy increase” value ([3]; NR 3000 mg daily, 4 weeks) was “No participants developed any clinical symptoms” and the “increase in triglycerides, total cholesterol and LDL” value ([3]; NR 3000 mg daily, 4 weeks) was “no such effects”. The “serum folic acid, methylmalonic acid and vitamin B12” value ([3]; NR 3000 mg daily, 4 weeks) was “remained unchanged”, the serum triglyceride levels [3, 4] was “nominal trend for a reduction in serum triglyceride levels” and the “change in serum HCy at second visit” value ([3]; V2, day 3 of treatment, vs baseline, NR 3000 mg daily) was “+2.29±1.72 μmol/L”. The “change in serum HCy after second visit until end of study” value ([3]; V2 to V7, NR 3000 mg daily) was -0.63 ± 1.76 µmol/L, the “serum HCy levels relative to normal range” value ([3]; most participants, NR 3000 mg daily) was “remained within normal range” and the “change in serum homocysteine levels, last visit vs baseline” value ([3]; Δ V7−V1, NR 3000 mg daily) was “+1.66±0.63 μmol/L”. The “triglycerides, total cholesterol and LDL” value (adult humans; NR at lower doses, e.g., in combination with pterostilbene) was “mild increase in triglycerides, total cholesterol and LDL” and the “tolerability in adult humans” value (adult humans; doses up to at least 2000 mg daily) was “well tolerated with no evidence of toxicity”.
